Entries after “also recorded” stand apart in the source; their conditions may differ. Where a name gives a salt, the structure may show the parent alone.
Columns and labels:
Type in all cases: physicochemical
Infliximab [1] = experiment: Viscosity of Infliximab formulated in phosphate buffer pH 7.2 with single excipients (mVROC microfluidic viscometer, 20° C.); conditions: for viscosity reducing effect on the Infliximab solution: protein concentrations 152 mg/ml and 185 mg/ml, 150 thiamine hydrochloride, thiamine monophosphate
Procedure: Individual excipient solutions of 150 mM valine, leucine, phenylalanine, ascorbic acid, pyridoxine, proline and thiamine monophosphate were prepared in phosphate buffer pH 7.2. In the same buffer, a 5 mM solution of cyanocobalamin was prepared. Folic acid was prepared in a 13 mM concentration in phosphate puffer pH 7.2. Thiamine pyrophosphate was prepared in a 75 mM concentration in phosphate puffer pH 7.2. The pH was adjusted using HCl or NaOH where necessary.
For absorption spectroscopy, the absorbance at 280 nm was measured using a BioSpectrometer® kinetic (Eppendorf, Hamburg, Germany) with a protein extinction coefficient of A0.1%, 280 nm=1.428.
The mVROC™ Technology (Rheo Sense, San Ramon, Calif., USA) was used for viscosity measurements.
Measurements were performed at 20° C. using a 500 μl syringe and a shear rate of 3000 s-1. A volume of 200 μl was used. All samples were measured as triplicates.
Results of viscosity measurements regarding these experiments can be seen in FIG. 1, FIG. 2 and FIG. 3.

Infliximab [2] = experiment: Thermal stability (Tm, Tagg) of Infliximab in phosphate buffer pH 7.2 by nano-DSF; conditions: Infliximab pH 7.2, change versus control; for aggregation onset temperature Tagg: 150 mM excipient; for thermodynamic transition temperature characterizing heat induced protein unfolding (Tm): 150 mM valine, leucine, ascorbic acid or proline, 5 mM cyanocobalamin
Procedure: 2.1 Thermal Stability of Infliximab Formulated in Phosphate Buffer pH 7.2 Containing Valine, Leucine, Ascorbic Acid, Cyanocobalamin and Proline as Single Excipients
Buffers and samples were prepared as described under 1.1.
The nano-DSF Technology of a Prometheus system (NanoTemper Technologies GmbH, Munich, Germany) was used to determine melting points and aggregation points.
Fluorescence was measured at 330 and 350 nm as well as the backscattering intensity over a temperature range from 20 to 95° C. with an incline of 1° C./min.
Buffers and samples were prepared as described under 1.4 and 1.5.
Thermal stability measurements were performed as described under 2.1.

Evolocumab = experiment: Viscosity of Evolocumab formulated in acetate buffer pH 5.0 with single excipients (mVROC microfluidic viscometer, 20° C.); conditions: for viscosity of a Evolocumab formulation / viscosity of the formulation: pH 5.0; for viscosity of the formulation: Evolocumab 196 mg/ml, 150 mM pyridoxine, thiamine hydrochloride or ascorbic acid, 75 mM Paracetamol; for viscosity reducing effect compared among the excipients: Evolocumab pH 5.0, 150 mM excipient, data set with concentration by absorption spectroscopy; for viscosity for Evolocumab formulations: pH 5.0, 150 mM excipient
Procedure: 20 mM Acetate buffer was prepared by mixing 1.2 mg/ml glacial acetic acid with ultrapure water. pH was adjusted to 5.0 using HCl and NaOH if necessary. 0.1 mg/ml Polysorbate 80 was added as stabilizer
Excipient solutions of 150 mM leucine, isoleucine, phenylalanine, ascorbic acid, pyridoxine, proline, lysine, guanidine hydrochloride, thiamine hydrochloride, thiamine monophosphate were prepared in acetate buffer pH 5.0, respectively. Similarly, 25 mM quinine hydrochloride and 5 mM cyanocobalamin were prepared, respectively. Paracetamol and thiamine pyrophosphate were prepared with a concentration of 75 mM. The pH was adjusted using HCl or NaOH, if necessary.
When excipients themselves have a strong absorbance at 280 nm a Bradford-Assay was used.
The mVROC™ Technology (Rheo Sense, San Ramon, Calif. USA) was used for viscosity measurements.
A volume of 200 μl was used. All samples were measured as triplicates.

[3] = protein concentration 122 mg/ml (absorption spectroscopy), pH 7.2, 150 mM excipient, versus no excipient
[4] = protein concentration 149 mg/ml, 150 mM pyridoxine, thiamine hydrochloride or thiamine monophosphate, 5 mM cyanocobalamin, 13 mM folic acid, 75 mM thiamine pyrophosphate
[5] = protein concentration 174 mg/ml, 150 mM pyridoxine, ascorbic acid, thiamine hydrochloride or thiamine phosphate, 5 mM cyanocobalamin, 13 mM folic acid, 75 mM thiamine pyrophosphate, versus formulation without excipients
[6] = third data set, 75 mM thiamine pyrophosphate, 150 mM thiamine hydrochloride, thiamine monophosphate (thiamine monophosphate only at 180 mg/ml)
[7] = 5 mM cyanocobalamin, 25 mM quinine hydrochloride
[8] = protein concentration 180 mg/ml (Bradford assay), 150 mM pyridoxine or thiamine hydrochloride, 5 mM cyanocobalamin, 25 mM quinine hydrochloride, 75 mM paracetamol
[9] = higher protein concentration of 192 mg/ml
[10] = protein concentration 192 mg/ml (first mention, absorption spectroscopy)
[11] = protein concentration 143 mg/ml, pH 7.2, 150 mM excipient, versus no excipient

Row | Compound | thermodynamic transition temperature characterizing heat induced protein unfolding (Tm) (Infliximab [2]) | viscosity of the formulation (Infliximab [1]; [4]) | viscosity of the formulation (Infliximab [1]; [5]) | viscosity of the formulation (Evolocumab; [7]) | viscosity of a Evolocumab formulation (Evolocumab; [8]) | viscosity for Evolocumab formulations (Evolocumab; [9]) | viscosity for Evolocumab formulations (Evolocumab; [10]) | also measured
1 | CC(C)[C@H](N)C(=O)O [valine] | increase | – | – | – | – | – | – | viscosity of the formulation (Infliximab [1]; [3]): reduced the viscosity of the formulation; aggregation onset temperature Tagg (Infliximab [2]): increase
2 | Cc1ncc(C[n+]2csc(CCO[P@](=O)(O)OP(=O)(O)O)c2C)c(N)n1 [thiamine pyrophosphate] | – | reduce the viscosity of the formulation | reduce the viscosity of the formulation | – | – | – | – | viscosity reducing effect on the Infliximab solution (Infliximab [1]; 75 mM thiamine pyrophosphate): strong viscosity reducing effect; viscosity reducing efficiency (Evolocumab; formulations with 179 mg/ml and 204 mg/ml Evolocumab, 75 mM excipient): highly efficient; viscosity of a Evolocumab formulation (Evolocumab; [6]): reduced the viscosity
3 | C=C[C@H]1C[N@@]2CC[C@H]1C[C@H]2[C@H](O)c1ccnc2ccc(OC)cc12 [quinine hydrochloride, (R)-[(1S,2S,4S,5R)-5-ethenyl-1-azabicyclo[2.2.2]octan-2-yl](6-methoxyquinolin-4-yl)methanol dihydrate hydrochloride, reference compound] | – | – | – | reduced the viscosity of the formulation | reduced viscosity of the formulation | – | – | –
4 | Cc1ncc(CO)c(CO)c1O [pyridoxine] | – | reduce the viscosity of the formulation | viscosity reducing effect | reduced viscosity of the formulation | reduced | – | – | –
5 | N=C(N)N [guanidine hydrochloride, carbamimidoylazanium chloride] | – | – | – | – | – | reduced viscosity | reduced viscosity | viscosity reducing effect compared among the excipients (Evolocumab): most pronounced viscosity reducing effect
6 | Cc1ncc(C[n+]2csc(CCO)c2C)c(N)n1 [thiamine hydrochloride] | – | – | – | – | reduced | – | – | viscosity of the formulation (Infliximab [1]; protein concentration 149 mg/ml, 150 mM pyridoxine, thiamine hydrochloride or thiamine monophosphate, 5 mM cyanocobalamin, 13 mM folic acid, 75 mM thiamine pyrophosphate, hydrochloride): reduce the viscosity of the formulation; also recorded: high viscosity reducing potential; viscosity of the formulation (Infliximab [1]; protein concentration 174 mg/ml, 150 mM pyridoxine, ascorbic acid, thiamine hydrochloride or thiamine phosphate, 5 mM cyanocobalamin, 13 mM folic acid, 75 mM thiamine pyrophosphate, versus formulation without excipients, hydrochloride): high viscosity reducing potential; viscosity of the formulation (Infliximab [1]; protein concentration 174 mg/ml, 150 mM pyridoxine, ascorbic acid, thiamine hydrochloride or thiamine phosphate, 5 mM cyanocobalamin, 13 mM folic acid, 75 mM thiamine pyrophosphate, versus formulation without excipients, listed as thiamine hydrochoride, hydrochloride): viscosity reducing effect; viscosity reducing effect on the Infliximab solution (Infliximab [1]; 75 mM thiamine pyrophosphate): strong viscosity reducing effect; viscosity of the formulation (Evolocumab; 5 mM cyanocobalamin, 25 mM quinine hydrochloride, hydrochloride): reduced viscosity of the formulation; also recorded: most efficient viscosity reducing excipient; viscosity of a Evolocumab formulation (Evolocumab; [6]): reduced the viscosity
7 | NCCCC[C@H](N)C(=O)O [lysine] | – | – | – | – | – | reduced viscosity | reduced viscosity | viscosity reducing effect compared among the excipients (Evolocumab): most pronounced viscosity reducing effect
8 | cyanocobalamin | increase | reduce the viscosity of the formulation | reduce the viscosity of the formulation | reduced the viscosity of the formulation | reduced viscosity of the formulation | – | – | –
9 | O=C1O[C@H]([C@@H](O)CO)C(O)=C1O [ascorbic acid] | increase | – | viscosity reducing effect | reduced viscosity of the formulation | – | – | – | aggregation onset temperature Tagg (Infliximab [2]): increase
10 | CC[C@H](C)[C@H](N)C(=O)O [isoleucine] | – | – | – | – | – | reduced viscosity | reduced viscosity | –
11 | O=C(O)[C@@H]1CCCN1 [proline] | increase | – | – | – | – | reduced viscosity | – | viscosity of the formulation (Infliximab [1]; [3]): reduced the viscosity of the formulation; viscosity of the formulation (Infliximab [1]; [11]): reduced viscosity of the formulation; aggregation onset temperature Tagg (Infliximab [2]): increase

Further lines, with some results ahead:

Row | thermodynamic transition temperature characterizing heat induced protein unfolding (Tm) (Infliximab [2]) | viscosity of the formulation (Infliximab [1]; [4]) | viscosity of the formulation (Infliximab [1]; [5]) | viscosity of the formulation (Evolocumab; [7]) | viscosity of a Evolocumab formulation (Evolocumab; [8]) | viscosity for Evolocumab formulations (Evolocumab; [9]) | viscosity for Evolocumab formulations (Evolocumab; [10]) | Compound | also measured
12 | – | reduce the viscosity of the formulation | reduce the viscosity of the formulation | – | – | – | – | Nc1nc2ncc(CNc3ccc(C(=O)N[C@@H](CCC(=O)O)C(=O)O)cc3)nc2c(=O)[nH]1 [folic acid] | –
13 | – | – | – | reduced the viscosity of the formulation | reduced viscosity of the formulation | – | – | CC(=O)Nc1ccc(O)cc1 [paracetamol, reference compound] | –
14 | – | reduce the viscosity of the formulation | high viscosity reducing potential | – | – | – | – | Cc1ncc(C[n+]2csc(CCOP(=O)(O)O)c2C)c(N)n1 [thiamine monophosphate] | viscosity of the formulation (Infliximab [1]; protein concentration 174 mg/ml, 150 mM pyridoxine, ascorbic acid, thiamine hydrochloride or thiamine phosphate, 5 mM cyanocobalamin, 13 mM folic acid, 75 mM thiamine pyrophosphate, versus formulation without excipients, listed as thiamine phosphate): viscosity reducing effect; viscosity reducing effect on the Infliximab solution (Infliximab [1]; 75 mM thiamine pyrophosphate): strong viscosity reducing effect; viscosity of a Evolocumab formulation (Evolocumab; [6]): reduced the viscosity
15 | – | – | – | – | – | reduced viscosity | reduced viscosity | N[C@@H](Cc1ccccc1)C(=O)O [phenylalanine] | viscosity of the formulation (Infliximab [1]; [3]): reduced the viscosity of the formulation; viscosity of the formulation (Infliximab [1]; [11]): reduced viscosity of the formulation; also recorded: most efficient viscosity reducing excipient
16 | increase | – | – | – | – | reduced viscosity | reduced viscosity | CC(C)C[C@H](N)C(=O)O [leucine] | viscosity of the formulation (Infliximab [1]; [3]): reduced the viscosity of the formulation; viscosity of the formulation (Infliximab [1]; [11]): reduced viscosity of the formulation; viscosity reducing effect compared among the excipients (Evolocumab): most pronounced viscosity reducing effect; aggregation onset temperature Tagg (Infliximab [2]): increase
